Experimental findings from patent US4789665A, “Anthracyclines and drugs containing them” (Laboratoires Hoechst S. A., priority 1985, dated 1988) are described below.

Usually IC50 stands for the concentration that inhibits the measured activity by half.

Converted amounts (≈) assume the structure as drawn.

The test system of the first experiment is leukemia L 1210 strain cells. Kind of experiment: cell proliferation test (colony formation, procedure of HAMBURGER and SALMON), continuous exposure. The class given is cell-based. Conditions: Mus musculus, L1210, read-out: IC50 (continuous exposure). The procedure: The experimental protocol was performed according to the procedure of HAMBURGER and SALMON on leukemia L 1210 strain cells. Some modifications were introduced in the procedure of HAMBURGER and SALMON, and in particular:
the conditioned medium was replaced by McCoy5A. The number of cells in a dish was reduced to 5×10^2 cells per dish on account of the high covering efficiency of leukemia L 1210. […]
In addition, parallel experiments were carried out with continuous incubation and with various concentrations of the test substance by mixing the latter with the upper layer before application.
The dishes were kept in an incubator with 5% CO2, 20% O2, at 95% relative humidity for 5 to 7 days at 37° C. After this period, the colonies having a diameter greater than 60 μm were counted with an inverted microscope.
The results were expressed as a percentage of the number of colonies formed from treated L 1210 relative to an untreated control. The coefficient of variation of repeated experiments was less than 15%.
For `COCCN(CC#N)[C@H]1C[C@H](O[C@H]2C[C@](O)(C(C)=O)Cc3c(O)c4c(c(O)c32)C(=O)c2c(OC)cccc2C4=O)O[C@@H](C)[C@H]1O` [3'-N-cyanomethyl-3'-N-(2-methoxyethyl)daunorubicin], the IC50 was found to be 0.09 µg/mL (≈ 0.144 µM).

Turning to `COc1cccc2c1C(=O)c1c(O)c3c(c(O)c1C2=O)C[C@@](O)(C(C)=O)C[C@@H]3O[C@H]1C[C@H](NCC#N)[C@H](O)[C@H](C)O1` [3'-N-(cyanomethyl)daunorubicin], the IC50 worked out at 0.0028 µg/mL (≈ 0.00494 µM).

Staying with this experiment, now noted: Mus musculus, L1210; L 1210 leukemia cells, continuous incubation, colonies >60 μm counted after 5 to 7 days at 37° C; read-out: IC50 (continuous exposure).
Turning to `COCCN[C@H]1C[C@H](O[C@H]2C[C@](O)(C(C)=O)Cc3c(O)c4c(c(O)c32)C(=O)c2c(OC)cccc2C4=O)O[C@@H](C)[C@H]1O` [3'-N-(2-methoxyethyl)daunorubicin], the IC50 worked out at 0.01 µg/mL (≈ 0.0171 µM).

As for `COC(=O)CN[C@H]1C[C@H](O[C@H]2C[C@](O)(C(C)=O)Cc3c(O)c4c(c(O)c32)C(=O)c2c(OC)cccc2C4=O)O[C@@H](C)[C@H]1O` [3'-N-(carbomethoxymethyl)daunorubicin], the IC50 is 0.24 µg/mL (≈ 0.4 µM).

Turning to `CCN(CC)C(=O)CN[C@H]1C[C@H](O[C@H]2C[C@](O)(C(C)=O)Cc3c(O)c4c(c(O)c32)C(=O)c2c(OC)cccc2C4=O)O[C@@H](C)[C@H]1O` [3'-N-[(N,N-diethylcarbamoyl)methyl]daunorubicin], the IC50 came to 0.28 µg/mL (≈ 0.437 µM).

On to `CCN(CC)C(=O)CN(CC(=O)N(CC)CC)[C@H]1C[C@H](O[C@H]2C[C@](O)(C(C)=O)Cc3c(O)c4c(c(O)c32)C(=O)c2c(OC)cccc2C4=O)O[C@@H](C)[C@H]1O` [3'-N,N-bis[(N,N-diethylcarbamoyl)methyl]daunorubicin], for which the IC50 came out at 0.65 µg/mL (≈ 0.862 µM).

Regarding `COc1cccc2c1C(=O)c1c(O)c3c(c(O)c1C2=O)C[C@@](O)(C(C)=O)C[C@@H]3O[C@H]1C[C@H](N)[C@H](O)[C@H](C)O1` [DAUNORUBICIN, daunorubicin, reference compound], the IC50 was 0.02 µg/mL (≈ 0.0379 µM).

On to `COc1cccc2c1C(=O)c1c(O)c3c(c(O)c1C2=O)C[C@@](O)(C(C)=O)C[C@@H]3O[C@H]1C[C@H](N(CC#N)CC#N)[C@H](O)[C@H](C)O1` [3'-N,N-bis(cyanomethyl)daunorubicin], for which the IC50 was determined as 0.08 µg/mL (≈ 0.132 µM).

In the case of `COCCOCCN[C@H]1C[C@H](O[C@H]2C[C@](O)(C(C)=O)Cc3c(O)c4c(c(O)c32)C(=O)c2c(OC)cccc2C4=O)O[C@@H](C)[C@H]1O` [3'-N-[2-(2-methoxyethoxy)ethyl]daunorubicin], the IC50 worked out at 0.07 µg/mL (≈ 0.111 µM).

`COCCOCCN(CCOCCOC)[C@H]1C[C@H](O[C@H]2C[C@](O)(C(C)=O)Cc3c(O)c4c(c(O)c32)C(=O)c2c(OC)cccc2C4=O)O[C@@H](C)[C@H]1O` [3'-N,N-bis[2-(2-methoxyethoxy)ethyl]daunorubicin]: the IC50 came out at 0.22 µg/mL (≈ 0.301 µM).

For the compound `COc1cccc2c1C(=O)c1c(O)c3c(c(O)c1C2=O)C[C@@](O)(C(=O)CO)C[C@@H]3O[C@H]1C[C@H](N)[C@H](O)[C@H](C)O1` [DOXORUBICIN, doxorubicin, reference compound], the IC50 turned out to be 0.02 µg/mL (≈ 0.0368 µM).
